Tests used:
[1] = tested on: adenosine A2B receptor (CHO cells; single binding domain EPAC2 sensors); assay: single cell FRET, CHO cells expressing adenosine A2B receptor, EPAC2 sensors; assay type: cell-based; settings: 24 hours after transfection, single living cells
Experimental: Transfected cells were analyzed 24 h later.

[2] = tested on: adenylyl cyclase; assay: FRET signal with direct activators of adenylyl cyclase in cells; assay type: cell-based
[3] = tested on: endogenous beta2-adrenergic receptors (HEK293 cells; murine HCN2 (A467-K638) sensor); settings: 10 μM isoproterenol
Experimental: FIG. 12. […] B. FRET measurements in living HEK293 cells stimulated with 10 μM isoproterenol via endogenous beta2-adrenergic receptors. Cells were transfected with HCN2-based (A467-K638) sensor.
Samples were excited with a light from Polychrom IV (Till Photonics). […] The imaging data were analyzed by MetaMorph 5.0r6 software (Universal Imaging Corp.) and corrected for spillover of CFP into 535 nm channel, as well as for acceptor photobleaching to give a corrected ratio F535 nm/F480 nm.

`Nc1ncnc2c1ncn2[C@@H]1O[C@H](CO)[C@@H](O)[C@H]1O` [adenosine] was tested, and the “FRET between YFP and CFP upon adenosine” value [1] was “decrease of FRET”.
With `C=C[C@@]1(C)CC(=O)[C@]2(O)[C@@]3(C)[C@@H](O)CCC(C)(C)[C@@H]3[C@H](O)[C@H](OC(C)=O)[C@@]2(C)O1` [forskolin] the FRET-signal [2] was “detectable FRET-signal”.
`CC(C)NCC(O)c1ccc(O)c(O)c1` (stereo not drawn) [isoproterenol] was tested, and the “cAMP-dependent FRET change upon isoproterenol” value [3] was “decrease in FRET”.
